Laboratory results published in patent publication US20160326143A1, “COMPOUNDS AND USES” (AstraZeneca AB, priority 2015, published 2016).

Target: Recombinant human LTC4 synthase (Homo sapiens (Human), UniProt Q16873)
Assay: In vitro hLTC4 synthase enzyme assay (Test A)
Format: biochemical
Settings: Test A (Examples 1-61); substrate LTA4, LTC4 detected by HTRF; median of at least two determinations
Description: In Vitro hLTC4 Synthase Enzyme Assay (Test A)
Recombinant human LTC4 synthase is expressed in Piccia pastoralis and the purified enzyme is dissolved in 25 mM tris-buffer pH 7.8 supplemented with 0.1 mM glutathione (GSH) and stored at −80° C.
The buffer is used as background. Runs are performed in duplicates.
The reaction is stopped after 1 min by addition of double the reaction volume of a stop solution (MeOH:H2O:acetic acid 70:30:1).
After 15 fold dilution in PBS, LTC4 formation is detected with LTC4 HTRF kit (Cisbio, cat. No 64LC4PEC) and a fluorescence reader. Typically 6 μL of sample is mixed with 3 μL of each of the HTRF reagents d2 and k and analyzed as described in the kit manual.

Sequence of Recombinant human LTC4 synthase (Q16873 whole entry): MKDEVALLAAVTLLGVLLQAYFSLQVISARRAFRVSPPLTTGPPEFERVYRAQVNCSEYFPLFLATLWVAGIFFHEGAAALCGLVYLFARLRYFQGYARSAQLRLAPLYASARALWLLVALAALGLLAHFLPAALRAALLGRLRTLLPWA

Row | Structure (SMILES) | IC50
1 | COc1cc(N(CC2(C(F)(F)F)CC2)c2ccc(Cl)cc2)cnc1C(=O)C1CC1C(=O)O (stereo not shown) [Example 3, 2-(5-((4-Chlorophenyl)((1-(trifluoromethyl)cyclopropyl)methyl)amino)-3-methoxypicolinoyl)cyclopropanecarboxylic acid] | 0.149 µM
2 | COCC1(CN(c2ccc(Cl)cc2)c2cnc(C(=O)C3CC3C(=O)O)c(OC)c2)CC1 (stereo not shown) [Example 4, 2-(5-((4-Chlorophenyl)((1-(methoxymethyl)cyclopropyl)methyl)amino)-3-methoxypicolinoyl)cyclopropanecarboxylic acid] | 0.263 µM
3 | COc1cc(N(CC2(C)CC2)c2ccc(Cl)cc2)cnc1C(=O)C1CC1C(=O)O (stereo not shown) [Example 5, 2-(5-((4-Chlorophenyl)((1-methylcyclopropyl)methyl)amino)-3-methoxypicolinoyl)cyclopropanecarboxylic acid] | 0.038 µM
4 | COc1cc(N(CC2(C)CC2)c2ccc3c(c2)CCC3)cnc1C(=O)C1CC1C(=O)O (stereo not shown) [Example 6, 2-(5-((2,3-Dihydro-1H-inden-5-yl)((1-methylcyclopropyl)methyl)amino)-3-methoxypicolinoyl)cyclopropanecarboxylic acid] | 0.047 µM
5 | COc1cc(N(CC2CC2)c2ccc(C)c3ncccc23)cnc1C(=O)C1CC1C(=O)O (stereo not shown) [Example 8, 2-(5-((Cyclopropylmethyl)(8-methylquinolin-5-yl)amino)-3-methoxypicolinoyl)cyclopropanecarboxylic acid] | 0.279 µM
6 | COc1cc(N(CC2CC2)c2cccc3ccccc23)cnc1C(=O)C1CC1C(=O)O (stereo not shown) [Example 9, 2-(5-((Cyclopropylmethyl)(naphthalen-1-yl)amino)-3-methoxypicolinoyl)cyclopropanecarboxylic acid] | 0.024 µM
7 | COc1cc(N(CC2CC2)c2ccc(C)c3ccccc23)cnc1C(=O)C1CC1C(=O)O (stereo not shown) [Example 11, 2-(5-((Cyclopropylmethyl)(4-methylnaphthalen-1-yl)amino)-3-methoxypicolinoyl)cyclopropanecarboxylic acid] | 0.035 µM
8 | COc1cc(N(CC2CC2)c2ccc3ccccc3c2)cnc1C(=O)C1CC1C(=O)O (stereo not shown) [Example 12, 2-(5-((Cyclopropylmethyl)(naphthalen-2-yl)amino)-3-methoxypicolinoyl)cyclopropanecarboxylic acid] | 0.028 µM
9 | COc1cc(N(Cc2ccc(Cl)cc2)CC2CC2)cnc1C(=O)C1CC1C(=O)O (stereo not shown) [Example 13, 2-(5-((4-Chlorobenzyl)(cyclopropylmethyl)amino)-3-methoxypicolinoyl)cyclopropanecarboxylic acid] | 0.034 µM
10 | COc1cc(N(Cc2ccc3ccccc3c2)CC2CC2)cnc1C(=O)C1CC1C(=O)O (stereo not shown) [Example 17, 2-(5-((Cyclopropylmethyl)(naphthalen-2-ylmethyl)amino)-3-methoxypicolinoyl)cyclopropanecarboxylic acid] | 0.034 µM
11 | COc1cc(N(Cc2cccc(Cl)c2)CC2CC2)cnc1C(=O)C1CC1C(=O)O (stereo not shown) [Example 18, 2-(5-((3-Chlorobenzyl)(cyclopropylmethyl)amino)-3-methoxypicolinoyl)cyclopropanecarboxylic acid] | 0.039 µM
12 | COc1cc(N(Cc2ccc(F)cc2)CC2CC2)cnc1C(=O)C1CC1C(=O)O (stereo not shown) [Example 19, 2-(5-((Cyclopropylmethyl)(4-fluorobenzyl)amino)-3-methoxypicolinoyl)cyclopropanecarboxylic acid] | 0.105 µM
13 | COc1cc(N(Cc2cccc(C(F)(F)F)c2C)CC2CC2)cnc1C(=O)C1CC1C(=O)O (stereo not shown) [Example 20, 2-(5-((Cyclopropylmethyl)(2-methyl-3-(trifluoromethyl)benzyl)amino)-3-methoxypicolinoyl)cyclopropanecarboxylic acid] | 0.088 µM
14 | COc1cc(N(Cc2cccc(C(F)(F)F)c2Cl)CC2CC2)cnc1C(=O)C1CC1C(=O)O (stereo not shown) [Example 22, 2-(5-((2-Chloro-3-(trifluoromethyl)benzyl)(cyclopropylmethyl)amino)-3-methoxypicolinoyl)cyclopropanecarboxylic acid] | 0.112 µM
15 | COc1cc(N(Cc2c(C)ccc3ccccc23)CC2CC2)cnc1C(=O)C1CC1C(=O)O (stereo not shown) [Example 23, 2-(5-((Cyclopropylmethyl)((2-methylnaphthalen-1-yl)methyl)amino)-3-methoxypicolinoyl)cyclopropanecarboxylic acid] | 1.84 µM
16 | COc1cc(N(Cc2cccc(C)c2C)CC2CC2)cnc1C(=O)C1CC1C(=O)O (stereo not shown) [Example 28, 2-(5-((Cyclopropylmethyl)(2,3-dimethylbenzyl)amino)-3-methoxypicolinoyl)cyclopropanecarboxylic acid] | 0.067 µM
17 | COc1cc(N(Cc2ccc(F)c(F)c2F)CC2CC2)cnc1C(=O)C1CC1C(=O)O (stereo not shown) [Example 29, 2-(5-((Cyclopropylmethyl)(2,3,4-trifluorobenzyl)amino)-3-methoxypicolinoyl)cyclopropanecarboxylic acid] | 0.37 µM
18 | COc1cc(N(Cc2ccc(F)c(Cl)c2F)CC2CC2)cnc1C(=O)C1CC1C(=O)O (stereo not shown) [Example 30, 2-(5-((3-Chloro-2,4-difluorobenzyl)(cyclopropylmethyl)amino)-3-methoxypicolinoyl)cyclopropanecarboxylic acid] | 0.152 µM
19 | COc1cc(N(Cc2cccc(C(F)(F)F)c2F)CC2CC2)cnc1C(=O)C1CC1C(=O)O (stereo not shown) [Example 31, 2-(5-((Cyclopropylmethyl)(2-fluoro-3-(trifluoromethyl)benzyl)amino)-3-methoxypicolinoyl)cyclopropanecarboxylic acid] | 0.331 µM
20 | COc1cc(N(Cc2c(F)ccc(C)c2F)CC2CC2)cnc1C(=O)C1CC1C(=O)O (stereo not shown) [Example 32, 2-(5-((Cyclopropylmethyl)(2,6-difluoro-3-methylbenzyl)amino)-3-methoxypicolinoyl)cyclopropanecarboxylic acid] | 1.67 µM
21 | COc1cc(N(Cc2ccc(C)c(F)c2F)CC2CC2)cnc1C(=O)C1CC1C(=O)O (stereo not shown) [Example 33, 2-(5-((Cyclopropylmethyl)(2,3-difluoro-4-methylbenzyl)amino)-3-methoxypicolinoyl)cyclopropanecarboxylic acid] | 0.185 µM
22 | COc1cc(N(CC2CC2)c2ccc(C(F)(F)F)c3ccccc23)cnc1C(=O)C1CC1C(=O)O (stereo not shown) [Example 34, 2-(5-((Cyclopropylmethyl)(4-(trifluoromethyl)naphthalen-1-yl)amino)-3-methoxypicolinoyl)cyclopropanecarboxylic acid] | 0.019 µM
23 | COc1cc(N(CC2CC2)c2ccc(C(F)(F)F)c3cccnc23)cnc1C(=O)C1CC1C(=O)O (stereo not shown) [Example 35, 2-(5-((Cyclopropylmethyl)(5-(trifluoromethyl)quinolin-8-yl)amino)-3-methoxypicolinoyl)cyclopropanecarboxylic acid] | 0.229 µM
24 | COc1cc(N(CC2CC2)c2ccc3c4c(cccc24)CC3)cnc1C(=O)C1CC1C(=O)O (stereo not shown) [Example 36, 2-(5-((Cyclopropylmethyl)(1,2-dihydroacenaphthylen-5-yl)amino)-3-methoxypicolinoyl)cyclopropanecarboxylic acid] | 0.009 µM
25 | COc1cc(N(CC2CC2)c2cccc3c(C(F)(F)F)cccc23)cnc1C(=O)C1CC1C(=O)O (stereo not shown) [Example 37, 2-(5-((Cyclopropylmethyl)(5-(trifluoromethyl)naphthalen-1-yl)amino)-3-methoxypicolinoyl)cyclopropanecarboxylic acid] | 0.025 µM
